The Deep4Chem optical property database

Experiment: solvent given as SMILES
Settings: in C1CCCCC1

SMILES	emission maximum
[C-]#[N+]c1ccc(-c2ccc(NC)cc2)cc1	368 nm
CC(C)(C)NC1=C2C=CC=[N+]2[B-](F)(F)n2cccc21	503 nm
CCCC1(CCC)c2cc(-c3cccc(Cc4ccc(/C=C/c5ccccc5)cc4)c3)ccc2-c2ccc(-c3cccc(Cc4ccc(/C=C/c5ccccc5)cc4)c3)cc21	359 nm
Cc1cc(C)c(B(c2c(C)cc(C)cc2C)N2c3ccccc3C(C)(C)c3ccccc32)c(C)c1	533 nm

Same assay, conditions: in C1CCOC1

SMILES	emission maximum
CCn1c2ccccc2c2cc(-c3cc(-c4ccc5c(c4)c4ccccc4n5CC)nc(-c4ccc(C#N)cc4)n3)ccc21	408 nm
COc1ccc(-c2nc(-c3ccccc3O)c(-c3ccccc3O)n2-c2ccc(C)cc2)cc1	357 nm
CC1CC=C(c2ccc(-c3cccs3)s2)CC1 (centres undefined)	412 nm
[C-]#[N+]c1ccc(-c2ccc(NC)cc2)cc1	406 nm
c1ccc2c(c1)CCc1c-2cnc2c1-c1ccccc1CC2	356 nm
CC(C)(C)c1ccc(-c2nc(-c3ccc(C(C)(C)C)cc3)nc(-c3cc(C#N)c(-n4c5ccccc5c5c6oc7ccccc7c6ccc54)c(C#N)c3)n2)cc1	504.66 nm
CN(C)c1ccc(/C=C2\CC/C(=C\c3ccc(N(C)C)cc3)C2=O)cc1	529 nm
CC(C)(C)c1ccc2c(c1)c1cc(C(C)(C)C)ccc1n2-c1ccccc1-c1nc(-c2ccccc2P(=O)(c2ccccc2)c2ccccc2)nc(-c2ccccc2P(=O)(c2ccccc2)c2ccccc2)n1	515.1 nm
O=C1c2ccccc2C(=O)N1c1ccc(Cn2cncn2)cc1	361 nm
COc1cc(/C=C/c2ccccn2)c(OC)cc1C=O	446 nm
CCCCn1c2ccc(/C=C(\C#N)c3ccc([N+](=O)[O-])cc3)cc2c2cc(Cn3c(-c4ccc5c(c4)c4ccccc4n5CCCC)nc4ccccc43)ccc21	539 nm
CC(C)(C)c1ccc(C2=C(c3ccc(C(C)(C)C)cc3)[Si](c3ccccc3)(c3ccccc3)c3ccccc32)cc1	447 nm

Same assay, conditions: in C1COCCO1

SMILES	emission maximum
[C-]#[N+]c1ccc(-c2ccc(NC)cc2)cc1	395 nm
CN(C)c1ccc(/C=C2\CC/C(=C\c3ccc(N(C)C)cc3)C2=O)cc1	493 nm
O=C1c2ccccc2C(=O)N1c1ccc(Cn2cncn2)cc1	313 nm
CC(C)CN1C(=O)/C(=C/c2ccc(C#N)cc2)C=C1c1ccccc1	598 nm

Same assay, conditions: in CC#N

SMILES	emission maximum
Cc1ccc2nc3c(=O)[nH]c(=O)[nH]c3nc2c1C	461 nm
CC1CC=C(c2ccc(-c3cccs3)s2)CC1 (centres undefined)	404 nm
[C-]#[N+]c1ccc(-c2ccc(NC)cc2)cc1	421 nm
c1ccc2c(c1)CCc1c-2cnc2c1-c1ccccc1CC2	358 nm
COC(=O)C[C@H](NC(=O)[C@H](Cc1c[nH]c2ccccc12)NC(=O)OC(C)(C)C)C(=O)OC	330 nm
CN(C)c1ccc(/C=C2\CC/C(=C\c3ccc(N(C)C)cc3)C2=O)cc1	587 nm
CC(C)(C)c1ccc2c(c1)c1cc(C(C)(C)C)ccc1n2-c1ccccc1-c1nc(-c2ccccc2P(=O)(c2ccccc2)c2ccccc2)nc(-c2ccccc2P(=O)(c2ccccc2)c2ccccc2)n1	548.81 nm
Cc1ccc2c(nc3c(=O)n(C)c(=O)nc-3n2C)c1C	543 nm
O=C1c2ccccc2C(=O)N1c1ccc(Cn2cncn2)cc1	471 nm
COc1cc(/C=C/c2ccccn2)c(OC)cc1C=O	458 nm
CCCCn1c2ccc(/C=C(\C#N)c3ccc([N+](=O)[O-])cc3)cc2c2cc(Cn3c(-c4ccc5c(c4)c4ccccc4n5CCCC)nc4ccccc43)ccc21	580 nm

Same assay, conditions: in CC(C)=O

SMILES	emission maximum
[C-]#[N+]c1ccc(-c2ccc(NC)cc2)cc1	427 nm
CN(C)c1ccc(/C=C2\CC/C(=C\c3ccc(N(C)C)cc3)C2=O)cc1	565 nm
CC(C)(C)c1ccc2c(c1)c1cc(C(C)(C)C)ccc1n2-c1ccccc1-c1nc(-c2ccccc2P(=O)(c2ccccc2)c2ccccc2)nc(-c2ccccc2P(=O)(c2ccccc2)c2ccccc2)n1	532.75 nm
CC(C)(C)NC1=C2C=CC=[N+]2[B-](F)(F)n2cccc21	492 nm
O=C1c2ccccc2C(=O)N1c1ccc(Cn2cncn2)cc1	407 nm

Same assay, conditions: in CC(C)O

SMILES	emission maximum
CN(C)c1ccc(/C=C2\CC/C(=C\c3ccc(N(C)C)cc3)C2=O)cc1	590 nm
O=C1c2ccccc2C(=O)N1c1ccc(Cn2cncn2)cc1	427 nm

Same assay, conditions: in CCCCCC

SMILES	emission maximum
CC1CC=C(c2ccc(-c3cccs3)s2)CC1 (centres undefined)	408 nm
[C-]#[N+]c1ccc(-c2ccc(NC)cc2)cc1	366 nm
c1ccc2c(c1)CCc1c-2cnc2c1-c1ccccc1CC2	358 nm
O=C1c2ccccc2C(=O)N1c1ccc(Cn2cncn2)cc1	310 nm

Same assay, conditions: in CCCCO

SMILES	emission maximum
O=C1c2ccccc2C(=O)N1c1ccc(Cn2cncn2)cc1	402 nm

Same assay, conditions: in CCO

SMILES	emission maximum
CCOC(=O)c1cc(C(=O)OCC)c2cc(N)ccc2n1	537 nm
CC1CC=C(c2ccc(-c3cccs3)s2)CC1 (centres undefined)	411 nm
CN(C)c1ccc(/C=C2\CC/C(=C\c3ccc(N(C)C)cc3)C2=O)cc1	613 nm
CC(C)(C)NC1=C2C=CC=[N+]2[B-](F)(F)n2cccc21	494 nm
O=C1c2ccccc2C(=O)N1c1ccc(Cn2cncn2)cc1	422 nm
O=c1c2cc(F)c(N3CCOCC3)cc2oc2cc(N3CCOCC3)c(F)cc12	448 nm
CCCCn1c2ccc(/C=C(\C#N)c3ccc([N+](=O)[O-])cc3)cc2c2cc(Cn3c(-c4ccc5c(c4)c4ccccc4n5CCCC)nc4ccccc43)ccc21	520 nm

Same assay, conditions: in CCOC(C)=O

SMILES	emission maximum
CCn1c2ccccc2c2cc(-c3cc(-c4ccc5c(c4)c4ccccc4n5CC)nc(-c4ccc(C#N)cc4)n3)ccc21	408 nm
[C-]#[N+]c1ccc(-c2ccc(NC)cc2)cc1	403 nm
c1ccc2c(c1)CCc1c-2cnc2c1-c1ccccc1CC2	358 nm
COC(=O)C[C@H](NC(=O)[C@H](Cc1c[nH]c2ccccc12)NC(=O)OC(C)(C)C)C(=O)OC	327 nm
CN(C)c1ccc(/C=C2\CC/C(=C\c3ccc(N(C)C)cc3)C2=O)cc1	528 nm
CC(C)(C)NC1=C2C=CC=[N+]2[B-](F)(F)n2cccc21	498 nm
O=C1c2ccccc2C(=O)N1c1ccc(Cn2cncn2)cc1	355 nm
Cc1cc2ccccc2c2c1c1ccccc1n2-c1ccc(N(c2ccccc2)c2ccccc2)cc1	386 nm
CCCCn1c2ccc(/C=C(\C#N)c3ccc([N+](=O)[O-])cc3)cc2c2cc(Cn3c(-c4ccc5c(c4)c4ccccc4n5CCCC)nc4ccccc43)ccc21	528 nm

Same assay, conditions: in CCOCC

SMILES	emission maximum
O=C1c2ccccc2C(=O)N1c1ccc(Cn2cncn2)cc1	339 nm

Same assay, conditions: in CN(C)C=O

SMILES	emission maximum
CCn1c2ccccc2c2cc(-c3cc(-c4ccc5c(c4)c4ccccc4n5CC)nc(-c4ccc(C#N)cc4)n3)ccc21	422 nm
[C-]#[N+]c1ccc(-c2ccc(NC)cc2)cc1	435 nm
CN(C)c1ccc(/C=C2\CC/C(=C\c3ccc(N(C)C)cc3)C2=O)cc1	575 nm
COCCC1(CCOC)c2cc(-c3ccc(OC)cc3)ccc2-c2ccc(-c3ccc4c(c3)C(CCOC)(CCOC)c3cc(-c5ccc(OC)cc5)ccc3-4)cc21	395 nm
CC(C)(C)c1ccc2c(c1)c1cc(C(C)(C)C)ccc1n2-c1ccccc1-c1nc(-c2ccccc2P(=O)(c2ccccc2)c2ccccc2)nc(-c2ccccc2P(=O)(c2ccccc2)c2ccccc2)n1	539.75 nm
O=C1c2ccccc2C(=O)N1c1ccc(Cn2cncn2)cc1	503 nm
COc1cc(/C=C/c2ccccn2)c(OC)cc1C=O	456 nm
CCCCn1c2ccc(/C=C(\C#N)c3ccc([N+](=O)[O-])cc3)cc2c2cc(Cn3c(-c4ccc5c(c4)c4ccccc4n5CCCC)nc4ccccc43)ccc21	581 nm
CCCCCCOc1ccc(C#Cc2ccc(C#CC#Cc3ccc(C#Cc4ccc(OCCCCCC)c(OCCCCCC)c4)c4nsnc34)c3nsnc23)cc1OCCCCCC	638 nm

Same assay, conditions: in CO

SMILES	emission maximum
[C-]#[N+]c1ccc(-c2ccc(NC)cc2)cc1	422 nm
c1ccc2c(c1)CCc1c-2cnc2c1-c1ccccc1CC2	361 nm
COC(=O)C[C@H](NC(=O)[C@H](Cc1c[nH]c2ccccc12)NC(=O)OC(C)(C)C)C(=O)OC	338 nm
CN(C)c1ccc(/C=C2\CC/C(=C\c3ccc(N(C)C)cc3)C2=O)cc1	635 nm
CC(C)(C)NC1=C2C=CC=[N+]2[B-](F)(F)n2cccc21	491 nm
